Results from patent publication US20060252073A1, “Compositions and methods for the treatment of cancer” (Regents of the University of Michigan, priority 2005, published 2006).
“And” between values parts separate entries of the source, which are not always exact repeats. Identical values can stand only once.

Experiments:
[1] = tested on: established leukemias (AML and ALL); experiment: Rapamycin against established leukemias in mice transplanted with Pten fl/fl Mx-1-Cre bone marrow cells, starting 15 weeks after pIpC; assay type: in vivo; conditions: daily 4 mg/kg from 15 weeks after pIpC
Protocol: (§1) Administration of Rapamycin.
(§2) Histopathology. Spleen, liver, and thymus samples were fixed in 10% neutral buffered formalin and paraffin embedded. Thin sections (5 μm) were cut on a microtome and stained with hematoxylin and eosin using standard protocols. Chloroacetate esterase staining was performed using a Leder stain kit (Sigma).
To test if rapamycin was effective against established leukemias, mice that had been transplanted with Pten^fl/fl Mx-1-Cre bone marrow cells were treated with daily injections of vehicle or rapamycin, beginning 15 weeks after pIpC.
Mice that had been transplanted with 1×10^6 Pten^fl/fl Mx-1-Cre donor (CD45.2^+) bone marrow cells along with 0.5×10^6 control (CD45.1^+) bone marrow cells were treated with daily injections of vehicle or rapamycin (4 mg/kg), starting 15 weeks after pIpC treatment.

[2] = tested on: Pten^fl/flMx-1-Cre mice; experiment: Rapamycin given immediately after Pten deletion (pIpC) in Pten fl/fl Mx-1-Cre mice; assay type: in vivo; conditions: daily injections for 7 days after pIpC treatment
Protocol: Administration of polyinosine-polycytidine (pIpC) to induce Mx-1-Cre expression. pIpC (Sigma P-0913) was resuspended with DPBS at a concentration of 2 mg/ml and passed through a 0.22 uM filter (See, e.g., Mikkola et al., Nature 421, 54751 (2003)). Mice received 25 ug of pIpC/g of body mass every other day for 2 weeks.
as §1, §2
All 3 such mice in this experiment died within 3-4 weeks of pIpC treatment, with AML and ALL (FIG. 9c).

[3] = tested on: Flk2^−Sca-1^+Lin^−c-kit^+CD48^− cells (HSCs); conditions: mouse, in vivo
Source text: Flow cytometry and the isolation of hematopoietic stem cells (HSCs). Bone marrow cells were flushed from long bones with Hank's buffered salt solution without calcium or magnesium, supplemented with 2% heat-inactivated calf serum (GIBCO, Grand Island, N.Y.; HBSS^+). Cells were triturated and filtered through a nylon screen (45 μm, Sefar America, Kansas City, Mo.) to obtain a single cell suspension. Flk2^−Sca-1^+ Lineage^− c-kit^+ CD48^− HSCs and Thy1.1^low Sca-1^+ Mac-1^low CD4^low B220 MPPs were isolated as previously described (See, e.g., Christensen and Weissman, Proc Natl Acad Sci USA 98, 14541-6 (2001); Kiel et al., Cell 121, 1109-21 (2005); Morrison and Weissman, Immunity 1, 661-673 (1994)). For isolation of Flk2^−Sca-1^+ Lineage c-kit^+ CD48^− HSCs, whole bone marrow cells were incubated with unconjugated monoclonal antibodies to lineage markers including B220 (6B2), CD3 (KT31.1), CD4 (GK1.5), CD5 (53-7.3), CD8 (53-6.7), Gr-1 (8C5), Mac-1 (M1/70) and Terl19. Following dilution, pelleted cells were resuspended in anti-rat IgG-specific F(ab)2 conjugated to phycoerythrin (PE; Jackson ImmunoResearch, West Grove, Pa.). […] When CD45.2^+ HSCs were analyzed, CD45.2 (104-FITC; BD PharMingen) and CD48 (HM48-1-PE, eBioscience) were used. […]
Cell cycle analysis. BrdU incorporation was measured by flow-cytometry (BD PharMingen). […]

CO[C@H]1C[C@@H]2CC[C@@H](C)[C@@](O)(O2)C(=O)C(=O)N2CCCC[C@H]2C(=O)O[C@H]([C@H](C)C[C@@H]2CC[C@@H](O)[C@H](OC)C2)CC(=O)[C@H](C)/C=C(\C)[C@@H](O)[C@@H](OC)C(=O)[C@H](C)C[C@H](C)/C=C/C=C/C=C/1C [Rapamycin]
Bone marrow HSCs that were donor type, average ([1]; average of 3 mice): 39 ± 6% | Bone marrow HSCs that were donor type ([1]; individual mice, Pten-deficient donor (CD45.2+) HSCs, 4 mg/kg): 35% and 45% and 36% | bone marrow and spleen cellularity in control mice [2]: without significantly affecting | HSC numbers in control mice [3]: without affecting | proliferation of HSCs from control littermates [3]: without affecting
